# Test results from patent US8329617B2, “Compositions and methods for synergistic manipulation of plant and insect defenses” (Plant Bioscience Limited, priority 2007, dated 2012).
# Entries after “also recorded” stand apart in the source; their conditions may differ.
# Tests used:
# Myzus persicae, US1L [1] = assay: Bioassay: M. persicae protein on four pepper plants treated with cis-jasmone and PBO (1, 5 or 10 adults per plant); format: in vivo; details: for Av. Total Insect Protein μg: Bioassay, M. persicae (US1L), average of weeks 1 to 3; for μg (Av) Total Protein (M. persicae): four pepper plants, 7 days
# Description: (§1) In all bioassay experiments the control plants were sprayed with deionised water. Initially seven treatments were used (Table 1) to test all chemical variables. All treatments were applied hydraulically with a spray simulator after which the plants were separated according to treatment (with cis-jasmone controls being separated) and left for 2 hours prior to insect application.
# Analysis of protein in each treatment was conducted using Bradford Reagent: the data were analysed using the computer programme ‘GraFit’ (Erithacus software, Berkeley). To calculate the calibration curve a single logarithmic curve was used with regression analysis taking the values of the treatment wells (averages of the three readings taken: technical replicates). […]
# To investigate developmental/fecundity effects of cis-jasmone+/−PBO E on Myzus persicae when applied to sweet peppers, one adult was added to the plants. Aphids were brushed from all plants and each leaf checked individually to ensure none remained. The aphid mass for each treatment was assessed for total protein (total from all four plants in the treatment) using Bradford reagent. The amount of aphid protein present on the plants 7 days after treatment was measured.
# (§2) Myzus persicae was applied to sweet peppers at the rate of five adults were added per plant. Aphids were brushed from all plants and each leaf checked individually to ensure none remained. The aphid mass for each treatment was assessed for total protein (total from all four plants in the treatment) using Bradford reagent. The amount of aphid protein present on the plants 7 days after treatment was measured (for further information see Example 3).
# as §2, with “persicae were” for “persicae was”, “of ten” for “of five”, “adults” for “adults were added”
# first instar aphids = assay: BABA root drench concentration series, aphid population growth on brassica and potato; format: in vivo; details: series 1-10 mM, aphids weighed after 1 week
# Description: Using example crops of brassica [Brassica nigra] and potato [Solanum tuberosum]; BABA was added as a drench to the roots to ‘prime’ the plants in a series of concentrations (1-10 mM). The plants were artificially infested with a set number of first instar aphids (characterised as insecticide-resistant or -susceptible) and left for 1 week. At the end of this period, all aphids were removed and weighed to determine the growth of the population. This identified the optimal concentration of BABA to use to produce maximum secondary metabolites within the plant. All concentrations were lower than that which could cause direct damage to the crop. 3 mM BABA was identified as optimal for the conditions employed.
# aphid (M. persicae) = assay: Bioassay: M. persicae protein on potato, pepper and black mustard plants treated with BABA and/or PBO; format: in vivo, Myzus persicae; details: 3 adult apterous aphids per plant, 3 mM BABA root drench, PBO E spray, 7 days
# Description: In all bioassay experiments the control plants were sprayed with deionised water. Initially seven treatments were used (Table 1b) to test all chemical variables. […] Analysis of protein in each treatment was conducted using Bradford Reagent: the data were analysed using the computer programme ‘GraFit’ (Erithacus software, Berkeley). To calculate the calibration curve a single logarithmic curve was used with regression analysis taking the values of the treatment wells (averages of the three readings taken: technical replicates). Laboratory tests were undertaken to compare effects of combined and single treatments of PBO and BABA on control of aphid (M. persicae) on potato, pepper, and black mustard and whitefly (B. tabaci) on cotton and tomato. All tests included untreated and blank (water) controls, and both single and combined applications of PBO and BABA. […] To investigate developmental/fecundity effects of BABA+/−PBO E (see Table 1) on Myzus persicae when applied to plants, adults were added to the plants and then using Bradford reagent, the amount of aphid protein present on the plants 7 days after treatment was measured. Esterase levels were also tested after the same interval to check for the possible induction of metabolic enzymes when using BABA. Aphids were brushed from all plants and each leaf checked individually to ensure none remained. The aphid mass for each treatment was weighed before total protein was assessed (total from all five plants in the treatment).
# whitefly (B. tabaci) = assay: Bioassay: B. tabaci pupae protein on cotton and tomato plants treated with BABA and/or PBO; format: in vivo, Bemisia tabaci; details: 3 mM BABA root drench, PBO E spray
# Description: In all bioassay experiments the control plants were sprayed with deionised water. Initially seven treatments were used (Table 1b) to test all chemical variables. […] Analysis of protein in each treatment was conducted using Bradford Reagent: the data were analysed using the computer programme ‘GraFit’ (Erithacus software, Berkeley). To calculate the calibration curve a single logarithmic curve was used with regression analysis taking the values of the treatment wells (averages of the three readings taken: technical replicates). Laboratory tests were undertaken to compare effects of combined and single treatments of PBO and BABA on control of aphid (M. persicae) on potato, pepper, and black mustard and whitefly (B. tabaci) on cotton and tomato. All tests included untreated and blank (water) controls, and both single and combined applications of PBO and BABA. […] Adults were added to the plant 2 days after treatment, and removed after 24 h. The eggs laid were then left for 16-18 days until they reached the pupal stage. The total pupal protein on the plant was tested using the Bradford reagent.
# Bemisia tabaci, GUA MIX [2] = assay: Glasshouse simulator trial: B. tabaci pupae protein on tomato plants treated with cis-jasmone and PBO; format: in vivo; details: for μg (Av) Total Protein (B. tabaci pupae): simulator, ten tomato plants per treatment, ten adult whiteflies per plant, ~16 days
# Description: as §1
# (§3) Analysis of protein in each treatment was conducted using Bradford Reagent: the data were analysed using the computer programme ‘GraFit’ (Erithacus software, Berkeley). To calculate the calibration curve a single logarithmic curve was used with regression analysis taking the values of the treatment wells (averages of the three readings taken: technical replicates).
# (§4) A new method for the investigation of the development of whitefly to the pupal stage on tomatoes and cotton was used. […] These were checked for protein after ˜16 days using Bradford reagent.
# (§5) Adults were added to the plant 2 h after treatment, and removed after 24 h. The eggs laid were then left for 16-18 days until they reached the pupal stage. The total pupal protein on the plant was tested using the Bradford reagent.
# As described above 10 adult females were released on to each tomato plant, ten/treatment and after ˜16 days pupae were removed using a scalpel blade. These were checked for total protein using Bradford reagent. Plants were put into glasshouse simulators (one/treatment) and kept at 28° C., 12 L: […] and 80% R.H.
# Myzus persicae, US1L [3] = assay: Glasshouse simulator trial: M. persicae protein on pepper plants treated with cis-jasmone and PBO; format: in vivo; details: for μg (Av) Total Protein (M. persicae): simulator, 25 pepper plants per treatment, three adult apterous aphids per plant, 7 days
# Description: as §1, §3
# To investigate developmental/fecundity effects of cis-jasmone+/−PBO (see Table 1) on Myzus persicae when applied to sweet peppers, adults were added to the plants and then using Bradford reagent, the amount of aphid protein present on the plants 7 days after treatment was measured. Esterase levels were also tested after the same interval to check for the possible induction of metabolic enzymes when using cis-jasmone. Aphids were brushed from all plants and each leaf checked individually to ensure none remained. The aphid mass for each treatment was weighed before total protein was assessed (total from all […] plants in the treatment).
# Myzus persicae were applied to sweet peppers at the rate of three adults per plant. Aphids were brushed from all plants and each leaf checked individually to ensure none remained. The aphid mass for each treatment was assessed for total protein (total from all 25 plants in the treatment) using Bradford reagent. The amount of aphid protein present on the plants 7 days after treatment was measured. Plants were put into glasshouse simulators (one/treatment) and kept at 28° C., 12 L: […] and 80% R.H.
# Bemisia tabaci, GUA MIX [4] = assay: Bioassay: B. tabaci pupae protein on one tomato plant treated with cis-jasmone and PBO; format: in vivo; details: for μg (Av) Total Protein (B. tabaci pupae): one tomato plant, ten adult whiteflies, ~16 days
# Description: as §1, §3, §4, §5
# B. tabaci = B. tabaci pupae protein on cotton plants treated with PBO and/or microencapsulated cis-jasmone; format: in vivo, Bemisia tabaci; details: five cotton plants per treatment, 5 adult female whiteflies per plant, ~16 days
# Description: as §4, §5
# Aphis gossypii = assay: A. gossypii protein on cotton plants treated with propyl gallate and cis-jasmone; format: in vivo; details: A. gossypii on cotton
# [5] = five adult apterous aphids per plant, week 1
# [6] = five adult apterous aphids per plant, week 2
# [7] = five adult apterous aphids per plant, week 3
# [8] = one adult apterous aphid per plant, week 1
# [9] = one adult apterous aphid per plant, week 2
# [10] = one adult apterous aphid per plant, week 3
# [11] = ten adult apterous aphids per plant, week 1
# [12] = ten adult apterous aphids per plant, week 2
# [13] = ten adult apterous aphids per plant, week 3
molecule,measurement,setting,value
2-(2-butoxyethoxy)ethyl 6-propylpiperonyl ether [PBO T + Acetone],Av. Total Insect Protein μg,"Myzus persicae, US1L [1]; 1 adult/plant",11.610 µg
same,Av. Total Insect Protein μg,"Myzus persicae, US1L [1]; 5 adults/plant",20.370 µg
same,Av. Total Insect Protein μg,"Myzus persicae, US1L [1]; 10 adults/plant",34.830 µg
same,μg (Av) Total Protein (M. persicae),"Myzus persicae, US1L [1]; [5]",22.30 µg
same,μg (Av) Total Protein (M. persicae),"Myzus persicae, US1L [1]; [6]",16.50 µg
same,μg (Av) Total Protein (M. persicae),"Myzus persicae, US1L [1]; [7]",22.30 µg
same,μg (Av) Total Protein (M. persicae),"Myzus persicae, US1L [1]; [8]",12.23 µg
same,μg (Av) Total Protein (M. persicae),"Myzus persicae, US1L [1]; [9]",12.30 µg
same,μg (Av) Total Protein (M. persicae),"Myzus persicae, US1L [1]; [10]",10.30 µg
same,μg (Av) Total Protein (M. persicae),"Myzus persicae, US1L [1]; [11]",37.68 µg
same,μg (Av) Total Protein (M. persicae),"Myzus persicae, US1L [1]; [12]",33.6 µg
same,μg (Av) Total Protein (M. persicae),"Myzus persicae, US1L [1]; [13]",33.2 µg
"CC(N)CC(=O)O (stereo not drawn) [BABA, beta aminobutyric acid]",optimal concentration of BABA,first instar aphids,3 mM
same,Protein A (Av),"aphid (M. persicae); five black mustard plants, week 1",14.56 µg
same,Protein A (Av),"aphid (M. persicae); five black mustard plants, week 2",15.10 µg
same,Protein A (Av),"aphid (M. persicae); five black mustard plants, week 3",14.10 µg
same,Protein A (Av),"aphid (M. persicae); five pepper plants, week 1",15.10 µg
same,Protein A (Av),"aphid (M. persicae); five pepper plants, week 2",16.10 µg
same,Protein A (Av),"aphid (M. persicae); five pepper plants, week 3",15.00 µg
same,Protein A (Av),"aphid (M. persicae); five potato plants, week 1",7.80 µg
same,Protein A (Av),"aphid (M. persicae); five potato plants, week 2",7.90 µg
same,Protein A (Av),"aphid (M. persicae); five potato plants, week 3",8.30 µg
same,Protein WF (Av),"whitefly (B. tabaci); cotton plants, ~16 days, week 1",0.1 µg
same,Protein WF (Av),"whitefly (B. tabaci); cotton plants, ~16 days, week 2",0.2 µg
same,Protein WF (Av),"whitefly (B. tabaci); cotton plants, ~16 days, week 3",0.2 µg
same,Protein WF (Av),"whitefly (B. tabaci); tomato plants, week 1",0.1 µg
same,Protein WF (Av),"whitefly (B. tabaci); tomato plants, week 2",0.23 µg
same,Protein WF (Av),"whitefly (B. tabaci); tomato plants, week 3",0.15 µg
"CC/C=C\CC1=C(C)CCC1=O [CJ, cis-jasmone]",Av. Total Insect Protein μg,"Bemisia tabaci, GUA MIX [2]; Simulator, Bemisia tabaci (GUA MIX) on Tomato (Carousel), average of weeks 1 to 3",0.104 µg
same,μg (Av) Total Protein (B. tabaci pupae),"Bemisia tabaci, GUA MIX [2]; week 1",0.109 µg
same,μg (Av) Total Protein (B. tabaci pupae),"Bemisia tabaci, GUA MIX [2]; week 2",0.102 µg
same,μg (Av) Total Protein (B. tabaci pupae),"Bemisia tabaci, GUA MIX [2]; week 3",0.100 µg
same,Av. Total Insect Protein μg,"Myzus persicae, US1L [3]; Simulator, M. persicae (US1L) on Pepper (BellBoy), average of weeks 1 to 3",13.842 µg
same,μg (Av) Total Protein (M. persicae),"Myzus persicae, US1L [3]; week 1",13.82 µg
same,μg (Av) Total Protein (M. persicae),"Myzus persicae, US1L [3]; week 2",13.8 µg
same,μg (Av) Total Protein (M. persicae),"Myzus persicae, US1L [3]; week 3",13.9 µg
same,Av. Total Insect Protein μg,"Bemisia tabaci, GUA MIX [4]; Bioassay, Bemisia tabaci (GUA MIX), average of weeks 1 to 3",0.167 µg
same,μg (Av) Total Protein (B. tabaci pupae),"Bemisia tabaci, GUA MIX [4]; week 1",0.1 µg
same,μg (Av) Total Protein (B. tabaci pupae),"Bemisia tabaci, GUA MIX [4]; week 2",0.2 µg
same,μg (Av) Total Protein (B. tabaci pupae),"Bemisia tabaci, GUA MIX [4]; week 3",0.2 µg
same,Av. Total Insect Protein μg,"Myzus persicae, US1L [1]; 1 adult/plant",7.690 µg
same,Av. Total Insect Protein μg,"Myzus persicae, US1L [1]; 5 adults/plant",11.330 µg
same,Av. Total Insect Protein μg,"Myzus persicae, US1L [1]; 10 adults/plant",25.210 µg
same,μg (Av) Total Protein (M. persicae),"Myzus persicae, US1L [1]; [5]",11.00 µg
same,μg (Av) Total Protein (M. persicae),"Myzus persicae, US1L [1]; [6]",11.99 µg
same,μg (Av) Total Protein (M. persicae),"Myzus persicae, US1L [1]; [7]",11.00 µg
same,μg (Av) Total Protein (M. persicae),"Myzus persicae, US1L [1]; [8]",11.00 µg
same,μg (Av) Total Protein (M. persicae),"Myzus persicae, US1L [1]; [9]",3.27 µg
same,μg (Av) Total Protein (M. persicae),"Myzus persicae, US1L [1]; [10]",8.80 µg
same,μg (Av) Total Protein (M. persicae),"Myzus persicae, US1L [1]; [11]",25.14 µg
same,μg (Av) Total Protein (M. persicae),"Myzus persicae, US1L [1]; [12]",25.4 µg
same,μg (Av) Total Protein (M. persicae),"Myzus persicae, US1L [1]; [13]",25.1 µg
same,Protein WF (Av),B. tabaci; week 1,0.03 µg
same,Protein WF (Av),B. tabaci; week 2,0.06 µg
"CCCOC(=O)c1cc(O)c(O)c(O)c1 [propyl gallate, Propyl 3,4,5-trihydroxybenzoate]",effect of propyl gallate on efficacy of microencapsulated cis-Jasmone (in words),Aphis gossypii,significantly (p<0.05) improves the efficacy of microencapsulated cis-Jasmone; also recorded: potentiates microencapsulated cis-Jasmone at least as well as PBO
